Experimental data as given in PubChem BioAssay AID2060496 (Molecular Pharmacology Branch, DTP, NCI, 2025).
Each block holds one compound with its values, some of them ahead of it.

Test system: 276233-004-R-J1-PDC complex spheroid viability
Test: Anticancer human tumor 276233-004-R-J1-PDC patient-derived colon adenocarcinoma cell line growth inhibition [GQUAD]
Settings: for IC50: curve of first compound; for viability, T/C: stronger effect = lower value
Text: DNA G-quadruplex Stabilizer Agents in Combinations in Complex Spheroids
A high-throughput screen of multi-cell type tumor spheroids was designed to identify active combinations of DNA G-quadruplex stabilizer agents and targeted small molecules. Complex spheroids include a stromal component modeled by human endothelial cells (HUVEC) and fibroblasts modeled by human mesenchymal stem cells (MSCs). The concentration ranges selected for each drug and investigational agent were based upon clinically achievable concentrations if the clinical Cmax of the agent was known.
Compounds. The drugs and investigational agents: pidnarulex (CX-5461; NSC782164), APTO-253 (NSC789042), BRACO-19 (NSC847499), peposertib (NSC802822), ceralasertib (NSC780249), elimusertib (NSC800525), camonsertib (NSC841442), AZD-1390 (NSC803789), olaparib (NSC753686), talazoparib (NSC767125), ART-558 (NSC835418), sotorasib (NSC818433), MRTX-1133 (NSC836407), SN-38 (NSC673596), topotecan (NSC609699), etoposide (NSC141540), doxorubicin (NSC123127), gemcitabine (NSC613327), 5-fluorouracil (NSC19893), paclitaxel (NSC125973), vemurafenib (NSC761431), panobinostat (NSC761190), R-306465 (JNJ-16241199; NSC773264), adavosertib (NSC754352), TP-3654 (NSC805149), carboplatin (NSC241240), KSQ-4279 (NSC840948), and staurosporine (NSC755774) were obtained from the National Cancer Institute (NCI) Developmental Therapeutics Program Chemical Repository (34). The FDA-approved anticancer drug set is available from the NCI Developmental Therapeutics Program. […] The stock solutions were prepared in dimethyl sulfoxide (DMSO, Sigma-Aldrich, St. Louis, MO, cat. D2650) at 800-fold the tested concentration and stored at -70 degrees C prior to their use. All drugs and investigational agents were tested over a range starting from a high concentration at or near the clinical Cmax and decreasing in half-log increments. If the clinical Cmax for an agent had not been determined, the highest concentration tested was 10 microM.
2.3 Cell Culture. All cells were maintained in an incubator at 37 degrees C and 5% CO2 with 95% humidity. The PDC lines were cultured according to standard operating procedures established by the NCI PDMR. All PDCs were thawed and cultured in Matrigel-coated flasks prepared with a working solution of 1X Ham's F-12 nutrient mix, without supplementation (Invitrogen, cat. 11765054), 100 U/mL penicillin-streptomycin (Invitrogen, cat. 15140122), and 2.5% Matrigel (Corning Inc., cat. 354248) for the first three passages. The 857933-349-R-J2-PDC line was cultured in 6C/Colon 1B media, which includes advanced DMEM/F-12 (Thermo Fisher Scientific, cat. 12634028), 10 mM HEPES (Thermo Fisher Scientific, cat. 15630080), 1X GlutaMAX supplement (Thermo Fisher Scientific, cat. 35050061), 0.1 mg/mL primocin (InvivoGen, cat. ant-pm-2), 10% defined fetal bovine serum, heat inactivated (HyClone Laboratories Inc., cat. SH30070.03HI), 50% L-WRN conditioned media (ATCC, cat. CRL-3276), 1.25 mM N-Acetyl-L-cysteine (Sigma-Aldrich, cat. A9165), 10 mM nicotinamide (Sigma-Aldrich, cat. N0636), 1X B-27 supplement (Thermo Fisher Scientific, cat. 17504044), 1X N-2 supplement (Thermo Fisher Scientific, cat. 17502048), 10 microM Y-27632 dihydrochloride (Tocris Bioscience, cat. 1254), and 50 ng/mL human EGF recombinant protein (Thermo Fisher Scientific, cat. PHG0311). The 485176-168-R4-J1-PDC line was cultured in Panc media, which includes all 6C/Colon 1B media components plus 100 ng/mL human FGF-10 (Thermo Fisher Scientific, cat. 100-26), 500 nM SB-431542 (Selleckchem, cat. S1067), and gastrin (Tocris, cat. 3006).
[…]

[1] = second compound 0.0316 µM, first compound 0.0316 µM
[2] = second compound 0.0316 µM, first compound 0.1 µM
[3] = second compound 0.0316 µM, first compound 0.316 µM
[4] = second compound 0.0316 µM, first compound 1 µM
[5] = second compound 0.0316 µM, first compound 3.16 µM
[6] = second compound 0.0316 µM, first compound 10 µM
[7] = second compound 0.1 µM, first compound 0.0316 µM
[8] = second compound 0.1 µM, first compound 0.1 µM
[9] = second compound 0.1 µM, first compound 0.316 µM
[10] = second compound 0.1 µM, first compound 1 µM
[11] = second compound 0.1 µM, first compound 3.16 µM
[12] = second compound 0.1 µM, first compound 10 µM
[13] = second compound 0.316 µM, first compound 0.0316 µM
[14] = second compound 0.316 µM, first compound 0.1 µM
[15] = second compound 0.316 µM, first compound 0.316 µM
[16] = second compound 0.316 µM, first compound 1 µM
[17] = second compound 0.316 µM, first compound 3.16 µM
[18] = second compound 0.316 µM, first compound 10 µM
[19] = second compound 1 µM, first compound 0.0316 µM
[20] = second compound 1 µM, first compound 0.1 µM
[21] = second compound 1 µM, first compound 0.316 µM
[22] = second compound 1 µM, first compound 1 µM
[23] = second compound 1 µM, first compound 3.16 µM
[24] = second compound 1 µM, first compound 10 µM
[25] = second compound 3.16 µM, first compound 0.0316 µM
[26] = second compound 3.16 µM, first compound 0.1 µM
[27] = second compound 3.16 µM, first compound 0.316 µM
[28] = second compound 3.16 µM, first compound 1 µM
[29] = second compound 3.16 µM, first compound 3.16 µM
[30] = second compound 3.16 µM, first compound 10 µM
[31] = second compound 10 µM, first compound 0.0316 µM
[32] = second compound 10 µM, first compound 0.1 µM
[33] = second compound 10 µM, first compound 0.316 µM
[34] = second compound 10 µM, first compound 1 µM
[35] = second compound 10 µM, first compound 3.16 µM
[36] = second compound 10 µM, first compound 10 µM
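Also: spheroids exposed to drugs for seven days.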
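For viability, T/C in this document: 100% = DMSO vehicle control viability.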

IC50 (second compound 0.0316 µM): > 10 µM | IC50 (second compound 0.1 µM): > 10 µM | IC50 (second compound 0.316 µM): > 10 µM | IC50 (second compound 1 µM): 7.14 µM | IC50 (second compound 3.16 µM): 1.55 µM | IC50 (second compound 10 µM): 1.43 µM
Structure (SMILES): C#Cc1c(F)ccc2cc(O)cc(-c3ncc4c(N5CC6CCC(C5)N6)nc(OCC56CCCN5CC(F)C6)nc4c3F)c12 (centres undefined) + Cc1cnc(CNC(=O)c2c(=O)c3ccc(N4CCCN(C)CC4)nc3n3c2sc2ccccc23)cn1
viability, T/C [1]: 115% | viability, T/C [2]: 86.6% | viability, T/C [3]: 101% | viability, T/C [4]: 77.5% | viability, T/C [5]: 83% | viability, T/C [6]: 57.8% | viability, T/C [7]: 95.2% | viability, T/C [8]: 77.7% | viability, T/C [9]: 75.3% | viability, T/C [10]: 75% | viability, T/C [11]: 70.7% | viability, T/C [12]: 60.5% | viability, T/C [13]: 84.1% | viability, T/C [14]: 73% | viability, T/C [15]: 85.7% | viability, T/C [16]: 80.8% | viability, T/C [17]: 69.5% | viability, T/C [18]: 59.6% | viability, T/C [19]: 84.2% | viability, T/C [20]: 71.4% | viability, T/C [21]: 75.5% | viability, T/C [22]: 73% | viability, T/C [23]: 62.8% | viability, T/C [24]: 44.4% | viability, T/C [25]: 65.2% | viability, T/C [26]: 76.2% | viability, T/C [27]: 66.9% | viability, T/C [28]: 53.8% | viability, T/C [29]: 44.5% | viability, T/C [30]: 41% | viability, T/C [31]: 64.1% | viability, T/C [32]: 73.5% | viability, T/C [33]: 67.7% | viability, T/C [34]: 45.8% | viability, T/C [35]: 43.2% | viability, T/C [36]: 5.43%

IC50 (second compound 0.0316 µM): > 10 µM | IC50 (second compound 0.1 µM): > 10 µM | IC50 (second compound 0.316 µM): > 10 µM | IC50 (second compound 1 µM): > 10 µM | IC50 (second compound 3.16 µM): > 10 µM | IC50 (second compound 10 µM): > 10 µM
Structure (SMILES): COc1cc(C2c3cc4c(cc3C(OC3OC5COC(C)OC5C(O)C3O)C3COC(=O)C23)OCO4)cc(OC)c1O (centres undefined) + Cc1cnc(CNC(=O)c2c(=O)c3ccc(N4CCCN(C)CC4)nc3n3c2sc2ccccc23)cn1
viability, T/C [1]: 83.2% | viability, T/C [2]: 91.7% | viability, T/C [3]: 87.8% | viability, T/C [4]: 72.9% | viability, T/C [5]: 98.6% | viability, T/C [6]: 82.1% | viability, T/C [7]: 97% | viability, T/C [8]: 92.2% | viability, T/C [9]: 76.2% | viability, T/C [10]: 95.3% | viability, T/C [11]: 75.5% | viability, T/C [12]: 88% | viability, T/C [13]: 85.4% | viability, T/C [14]: 77.3% | viability, T/C [15]: 86.9% | viability, T/C [16]: 94.8% | viability, T/C [17]: 73.1% | viability, T/C [18]: 81% | viability, T/C [19]: 84.8% | viability, T/C [20]: 80.2% | viability, T/C [21]: 85.8% | viability, T/C [22]: 83.2% | viability, T/C [23]: 96.4% | viability, T/C [24]: 78.2% | viability, T/C [25]: 78.7% | viability, T/C [26]: 78.2% | viability, T/C [27]: 76.7% | viability, T/C [28]: 76.9% | viability, T/C [29]: 87.7% | viability, T/C [30]: 75.2% | viability, T/C [31]: 65.1% | viability, T/C [32]: 72.2% | viability, T/C [33]: 70.9% | viability, T/C [34]: 71.5% | viability, T/C [35]: 78.7% | viability, T/C [36]: 82.9%
